Data published in patent US20180369327A1, “METHOD FOR TREATING OR PREVENTING OSTEOARTHRITIS” (Dong-A University Research Foundation for Industry-Academy …, priority 2017, published 2018).
“Also recorded” adds a separate entry of the source.

Experiments:
[1] = system: rat articular chondrocytes; experiment: Total cytosol FFA content measurement; assay type: cell-based; conditions: cells treated with 1.6 mM palmitate and 0.4 mM oleate; n=4
Description: Cell were collected after treatment with trypsin (0.2% trypsin, 0.02% EDTA and 0.2% glucose in PBS) and pelleted by centrifugation (200×g for 5 min at 4° C.). Cell pellet was resuspended in ice-cold hypotonic lysis medium containing 20 mM Tris-HCl, pH 7.4 and 1 mM EDTA. Cells were homogenized with a Dounce homogenizer and then centrifuged (800×g for 5 min at 4° C.). The post-nuclear supernatant fraction was ultra-centrifuged ([…] for 5 min at 4° C.) using Beckman Table-top ultracentrifuge. LD fraction with the distinct white band on the preparation was removed with a pipetman and LD-free cytosol was used for FFA measurement. Cytosol FFA levels were measured using a commercial free fatty acid quantification kit from Abcam (ab65341).

[2] = system: FSP27; experiment: Immunohistochemistry of cartilage, FSP27-positive cells, HFD-induced OA mouse model; assay type: in vivo; set-up: reference not given here; conditions: mice fed HFD, cilostazol 30 mg/kg/day orally 10 weeks; n=10
Description: (§1) HFD-induced OA mouse model. Sixty mice were fed a normal chow diet for one week and then mice were fed an HFD or a SD for 25 weeks. Ten mice from each diet were used histologically examine the effect of high fat diet. Forty mice were used to examine the effect of cilostazol. Mice fed a SD or HFD for 15 weeks were orally administered cilostazol at concentrations of 30 mg/kg/day for additional 10 weeks. SD+vehicle mice (n=10) were fed a SD and received DMSO. SD+cilostazol mice (n=10) were fed a SD and received cilostazol. HFD+vehicle mice (n=10) were fed a HFD and received DMSO. HFD+cilostazol mice (n=10) were fed a HFD and received cilostazol. Immunohistochemical observation and analysis. Tissue sections were incubated in 1:70-diluted goat serum solution for 30 minutes at room temperature, and then for 2 hours with 1:100-diluted primary antibody at room temperature. Next, sections were incubated with secondary antibody for 1 hour at 37° C. and developed using ABC complex. […] Histological images were observed and analyzed using a Aperio ScanScope® CS system. Total numbers of positive for […]27 and STAMP2 in four fields per animal were counted by an observer blinded to the experiment and the percentage of positive cells were calculated.

[3] = system: caspase-3 and -7; experiment: Western blot of apoptosis-related factors (caspase-3 and -7 activation); assay type: cell-based, rat; conditions: 30 μM cilostazol, 1.5 mM oleate; n=4
Description: Rat articular chondrocytes for primary culture were isolated from knee joint cartilage slices by enzymatic digestion for 1 h with 0.2% type II collagenase (381 units/mg) in DMEM. After the isolated cells were collected by brief centrifugation, they were resuspended in DMEM supplemented with 10% (v/v) FBS, […] streptomycin and 50 units/ml penicillin (Gibco). The cells were plated on culture dishes at a density of 5×10^4 cells/cm^2. The medium was replaced every 2 days, and they reached confluence after approximately 5 days in culture. In each experiment, the cells from three animals were pooled and analyzed three times. FFA were dissolved in absolute ethanol at a concentration of 500 mM and diluted to final concentrations of FFAs with the appropriate concentration of 1% (w/v) FFA-free BSA. Controls were incubated with equal concentrations of FFA-free BSA containing ethanol. […] Cell (2×10^6) were washed twice with ice-cold PBS. Cells were resuspended in lysis buffer [200 ll of icecold solubilizing buffer (300 mM NaCl, 50 mM Tris-Cl (pH 7.6), 0.5% Triton X-100, protease inhibitor cocktail)] and incubated at 4° C. for 30 min. […] The protein concentrations of the cell lysates were measured with the Bradford protein assay reagent (Bio-Rad). […] Immunostaining with the antibodies was carried out using the Super Signal West Pico enhanced chemiluminescence substrate and detected with LAS-3000PLUS.

[4] = system: STAMP2; experiment: Immunohistochemistry of cartilage, STAMP2-positive cells, HFD-induced OA mouse model; assay type: in vivo; conditions: mice fed HFD, cilostazol 30 mg/kg/day orally 10 weeks; n=10
Description: as §1

[5] = system: PKCK2; experiment: Immunohistochemistry of cartilage, PKCK2-positive cells, HFD-induced OA mouse model; assay type: in vivo; conditions: mice fed HFD, cilostazol 30 mg/kg/day orally 10 weeks; n=10
Description: as §1

[6] = system: STAMP2; experiment: Western blot of STAMP2 protein in articular chondrocytes; assay type: cell-based, rat; conditions: 30 μM cilostazol, 1.5 mM oleate; n=4
Description: (§2) Rat articular chondrocytes for primary culture were isolated from knee joint cartilage slices by enzymatic digestion for 1 h with 0.2% type II collagenase (381 units/mg) in DMEM. After the isolated cells were collected by brief centrifugation, they were resuspended in DMEM supplemented with 10% (v/v) FBS, […] streptomycin and 50 units/ml penicillin (Gibco). The cells were plated on culture dishes at a density of 5×10^4 cells/cm^2. The medium was replaced every 2 days, and they reached confluence after approximately 5 days in culture. In each experiment, the cells from three animals were pooled and analyzed three times. FFA were dissolved in absolute ethanol at a concentration of 500 mM and diluted to final concentrations of FFAs with the appropriate concentration of 1% (w/v) FFA-free BSA. Controls were incubated with equal concentrations of FFA-free BSA containing ethanol. […] Cell (2×10^6) were washed twice with ice-cold PBS. Cells were resuspended in lysis buffer [200 ll of icecold solubilizing buffer (300 mM NaCl, 50 mM Tris-Cl (pH 7.6), 0.5% Triton X-100, protease inhibitor cocktail)] and incubated at 4° C. for 30 min. The lysates were centrifuged at 14,000 rpm for 20 min at 4° C. The protein concentrations of the cell lysates were measured with the Bradford protein assay reagent (Bio-Rad). Then, 50 μg of proteins was loaded onto 15 SDS-PAGE. The separated proteins were transferred to nitrocellulose membranes (Amersham Pharmacia Biotech, Piscataway, N.J., USA) and probed with each antibody. Immunostaining with the antibodies was carried out using the Super Signal West Pico enhanced chemiluminescence substrate and detected with LAS-3000PLUS.

[7] = system: FSP27; experiment: Western blot of FSP27 protein in articular chondrocytes; assay type: cell-based, rat; conditions: 30 μM cilostazol, 1.5 mM oleate; n=4
Description: as §2

O=C1CCc2cc(OCCCCc3nnnn3C3CCCCC3)ccc2N1 [cilostazol]
FFA level in the cytosol [1]: significantly decreased the FFA level in the cytosol
population of FSP27-positive cells [2]: significantly increased
effect on oleate-induced activation of caspase-3 and -7 [3]: prevented
population of STAMP2-positive cells [4]: significantly increased
population of PKCK2-positive cells [5]: significantly increased
effect on oleate-induced downregulation of STAMP2 [6]: completely reversed the downregulation of STAMP2 induced by oleate; also recorded: reversed the 1.5 mM oleate (O)-induced downregulation of STAMP2
effect on oleate-induced downregulation of FSP27 [7]: prevented the 1.5 mM oleate-induced downregulation of FSP27
